# Assay results taken from patent publication US20240099951A1, “HAIR GROWTH STIMULANT” (ADJUVANT HOLDINGS CO., LTD., priority 2020, published 2024).
# System: skin samples derived from C57BL/6N mouse dorsal body hair skin grafted onto Balb/c nu/nu mice
# Experiment: Evaluation of hair growth activity: drug applied on skin samples transplanted in mice
# Type: in vivo
# Description: C57BL/6N mice (male) and Balb/c nu/nu mice (female) were purchased from Japan SLC, Inc. (Japan) and bred, and were thereafter made available for the following testing. Note that the testing and breeding of animals complied with pertinent laws, regulations, ordinances, and guidelines, and was performed with the approval of the Experimental Ethics Review Board of the Institute of Physical and Chemical Research. The following reagents were respectively prepared. • Comparative Example 1: 60% aqueous ethanol solution • Comparative Example 2: 5% minoxidil solution • Comparative Example 3: 3% minoxidil solution • Comparative Example 4: 1% minoxidil solution • Working Example 1: 3% phytosphingosine solution • Working Example 2: 1% phytosphingosine solution To collect dorsal body hair skin in the form of anagen stage VI skin 12 to 14 days following depilation, C57BL/6N mice of age 7 to 8 weeks were depilated at locations where dorsal body hair skin was intended to be collected, and were bred for 12 to 14 days. The depilated C57BL/6N mice were thereafter euthanized by cervical dislocation, following which a suitable amount of dorsal body hair skin was collected from the locations at which dorsal body hair skin was intended to be collected. The collected skin was immersed in DMEM culture medium (hereinafter “DMEM 10”) which contained 10 mM HEPES, 10% fetal bovine serum, and 1% penicillin/streptomycin solution. The collected dorsal body hair skin was grasped with bent-nose curved tweezers and was treated by immersion for 10 seconds in a sterilizing solution. Sterilization treatment was performed by carrying out treatment with 7% povidone iodine solution two times, treatment with PBS (−) three times, and treatment with DMEM 10 two times, in this order, with fresh solutions respectively being used each time. Following sterilization treatment, these were immersed in clean DMEM 10. Following sterilization treatment, the dorsal body hair skin was cut into pieces and formed into blocks. The transparent connective tissue which adhered to the cutaneous muscle layer of the skin was excised therefrom using curved scissors, and hair groups were cut into rectangular strips in parallel fashion with respect to the direction of the wave of the hair. At this time, these were cut into blocks such that there were 6 rows of hair follicles along the long axis, adjustment having been carried out so that there were 5 rows of hair follicles along the short axis. The skin samples derived from dorsal body hair skin that were prepared in accordance with the foregoing were grafted onto Balb/c nu/nu mice of age 4 to 6 weeks. More specifically, mice were anesthetized in the usual way using isoflurane gas. The dorsal area of the mice was then disinfected using 7% povidone iodine solution, following which the mice were made to assume a naturally recumbent posture. In addition, a Mani ophthalmic knife (Mani, Inc.; Japan) was used to pierce the skin at the dorsal area of the mice, the grafts which were formed extending from the epidermal layer of the skin to the subdermal layer. The skin samples derived from dorsal body hair skin were inserted into the grafts formed thereat in such fashion as to cause the hair groups to be directed toward the body surface side of the grafts. Skin sample transplanted depth was adjusted so as to cause the top portion of the hair group to be in a state such that it was exposed at the top portion of the graft. To protect the grafts, Nurseban (registered trademark) (Sunplanet Co., Ltd.; Japan) and surgical tape (3M Japan Limited; Japan) were then used as protective tape to cover the grafts at which the skin samples derived from dorsal body hair skin had been transplanted. The protective tape was removed 5 to 7 days following transplantation, and survival of the transplanted skin samples derived from dorsal body hair skin was determined by visual inspection or digital microscopy (Keyence Corporation; Japan), after which follow-up observation was carried out. […]
# [1] = 1% phytosphingosine solution (Working Example 2), second hair cycle
# [2] = 1% phytosphingosine solution (Working Example 2), third hair cycle
# [3] = 1% phytosphingosine solution, second hair cycle vs first hair cycle
# [4] = 1% phytosphingosine solution, third hair cycle vs first hair cycle
# [5] = 3% phytosphingosine solution (Working Example 1), second hair cycle
# [6] = 3% phytosphingosine solution (Working Example 1), third hair cycle
# [7] = 3% phytosphingosine solution, second hair cycle vs first hair cycle
# [8] = 3% phytosphingosine solution, third hair cycle vs first hair cycle
# [9] = solution containing 1% phytosphingosine
# [10] = solution containing 3% phytosphingosine
structure (smiles),measurement,setting,value
CCCCCCCCCCCCCC[C@@H](O)[C@@H](O)[C@@H](N)CO [phytosphingosine],Hair shaft elongation rate,[1],0.48 ± 0.03 mm/day
same,Maximum hair shaft length,[1],5.1 ± 0.2 mm
same,Hair shaft elongation rate,[2],0.45 ± 0.02 mm/day
same,Maximum hair shaft length,[2],4.7 ± 0.1 mm
same,"Hair shaft elongation rate, percent change relative to reference data",[3],129.73%
same,"Maximum hair shaft length, percent change relative to reference data",[3],113.33%
same,"Hair shaft elongation rate, percent change relative to reference data",[4],121.62%
same,"Maximum hair shaft length, percent change relative to reference data",[4],104.44%
same,Hair shaft elongation rate,[5],0.46 ± 0.03 mm/day
same,Maximum hair shaft length,[5],5.4 ± 0.1 mm
same,Hair shaft elongation rate,[6],0.43 ± 0.05 mm/day
same,Maximum hair shaft length,[6],5.1 ± 0.3 mm
same,"Hair shaft elongation rate, percent change relative to reference data",[7],109.52%
same,"Maximum hair shaft length, percent change relative to reference data",[7],122.73%
same,"Hair shaft elongation rate, percent change relative to reference data",[8],102.38%
same,"Maximum hair shaft length, percent change relative to reference data",[8],115.91%
same,hair growth activity,[9],exhibit hair growth activity
same,hair shaft elongation rate as compared with reference data,[9],significant improvement
same,maximum hair shaft length as compared with reference data,"solution containing 1% phytosphingosine, third hair cycle",no significant difference
same,hair growth activity,[10],exhibit hair growth activity
same,hair shaft elongation rate as compared with reference data,[10],no significant difference
same,maximum hair shaft length as compared with reference data,[10],significant improvement
